“Also recorded” adds a separate entry of the source.
How the values were obtained:
[1] = Solubility of the drug; assay type: physicochemical
[2] = test system: Dutch-belted rabbits; experiment: Toxic effects / tolerability of intravitreal injection in vivo; design: species or system rabbit
Description: Following the laser procedure, the eyes were anesthetized once more with topical proparacaine. Povidone-iodine was applied to the conjunctiva or sclera using sterile Q-tips. Either 50 μL of 15 mM LATS kinase inhibitor (LKI), or vehicle control, was injected per eye using 1 mL Luer-lock syringe with a 27G 1½ inch needle. The second generation LKI, TDI-011536, was used as a micro-suspension formulation prepared in phosphate buffer solution (PBS; Sigma) supplemented with 0.5% carboxymethyl cellulose (Sigma) and 0.5% Kolliphor P 188 Bio (BASF Pharma). Intravitreal injections containing LKI were administered in the right eye and control injections were administered in the left eye. Injections were administered 1-2 mm posterior to the superotemporal or superonasal limbus and delivery of each compound was confirmed on indirect ophthalmoscopy.

[3] = test system: primary human fetal RPE monolayers; experiment: In vitro wound healing (scratch) assay in RPE monolayers; assay type: cell-based; settings: for wound healing (wound closure, change in wound area as a percentage): 1 μM, mean±SE
Description: Approximately 72 hours before wound induction, culture media for primary human fetal RPE either remained supplemented with 5% FBS as above (FBS-containing condition) or was replaced with culture media not containing FBS (FBS-free condition). Culture media for iPSC-derived RPE either remained as X-VIVO media as above (FBS-free condition) or was supplemented with 5% FBS (FBS-containing condition).
Following 72-hour acclimation period, RPE monolayers were then subjected to a controlled horizontal scratch using the WoundMaker Tool™ (Essen BioScience Ltd., Welwyn Garden City, United Kingdom) according to the protocol provided by the manufacturer. Wells were subsequently washed 1-2 times with their respective media in order to remove cell debris. Cells were then treated with either 1 μM DMSO (as control) or 1 μM TDI-011536 dissolved in either FBS-containing or FBS-free media. To label and track proliferating cells, cells were incubated with 10 μM 5-Ethynyl-2′-deoxyuridine (EdU) for 96 hours.
Each well was imaged immediately following the scratch injury with a DMI6000B microscope equipped with 10×/0.3 HC PL FLUOTAR Ph1 (Leica Microsystems, Buffalo Grove, IL) and ORCA-Flash4.0 LT camera (Hamamatsu Corp., Bridgewater, NJ). Along the length of each scratch, 2-3 ROIs measuring 1100 μm in length were imaged again 24, 48, 72, and 96 hours after the scratch injury. All ROIs were positioned in the central portion of the scratch. Coordinates of ROIs within each well were stored using Leica Application Suite X software. Non-uniform scratches and/or those with small width or resulting in monolayer detachment were excluded.
Scratch areas in μm^2 for each ROI were obtained using the Wand Tool in QuPath at each time point (e.g., 0, 24, 48, 72, and 96 hours after the scratch). Wound healing was quantified as the difference in scratch area at each time point normalized to (e.g., divided by) the total area immediately post-scratch, expressed as a percentage.
A wound healing assay, which involves creating a uniform scratch on a confluent monolayer of cells, is a commonly used method to study response to injury in vitro. To assess whether Hippo pathway inhibition promotes RPE regeneration, a wound healing assay was performed on primary human fetal RPE monolayers grown on 96-well plates in various culture conditions. RPE monolayers were subjected to a horizontal scratch and incubated with EdU and either LKI or vehicle. Wound closure was monitored every 24 hours for 96 hours total (FIGS. 1A and 1B).

With `O=C(/N=c1\scc(CO)n1Cc1ccccc1)c1c[nH]c2ncccc12` [TDI-011536] the “solubility (in words)” value [1] was “highly insoluble”, the “tolerability of intravitreal injection” value ([2]; animal model) was “well-tolerated” and the “toxic effects in vivo” value ([2]; rabbit, in vivo) was “no toxic effects”. For the same compound, the “wound healing (wound closure, change in wound area as a percentage)” value ([3]; 24 hours after scratch, FBS-free media) was 25.06±0.96%, the “difference in wound closure, LKI compared to control” value (shortened to “difference in wound closure, LKI”) ([3]; 24 hours, FBS-free media) was 8.25±1.49% and the “wound healing (wound closure, change in wound area as a percentage)” value ([3]; 48 hours after scratch, FBS-free media) was 58.72±1.37%. For the same compound, the “difference in wound closure, LKI” value ([3]; 48 hours, FBS-free media) was 17.53±2.00%, the “wound healing (wound closure, change in wound area as a percentage)” value ([3]; 72 hours after scratch, FBS-free media) was 85.14±1.16% and the “difference in wound closure, LKI” value ([3]; 72 hours, FBS-free media) was 19.78±1.81%. For the same compound, the “wound healing (wound closure, change in wound area as a percentage)” value ([3]; 96 hours after scratch, FBS-free media) was 91.14±1.17%, the “difference in wound closure, LKI” value ([3]; 96 hours, FBS-free media) was 14.02±1.85% and the “wound closure compared to DMSO (in words)” value ([3]; FBS-containing media, all timepoints) was “significantly increased wound closure at all timepoints”. For the same compound, the “wound closure compared to control (in words)” value ([3]; FBS-free media, all time points 24-96 hours, listed as LKI) was “significantly increased at all time points; also recorded: significantly improved wound closure at all time points”.
